US9532983B2, “Benzofuran compounds, compositions, kits and/or methods thereof” (Savannah State University, priority 2013, dated 2017)
Several values for one entry are separate records, joined by “and”; a condition that tells them apart may be missing. Identical values can stand only once. Entries after “also recorded” stand apart in the source; their conditions may differ.

Legend:
[1] = target: T1, 5-HT2B (Homo sapiens, UniProt P41595); assay: Secondary binding assay, Ki determination: 5-HT2B
T1 construct: expressed in transfected cells

[2] = target: T2, Alpha2A (Homo sapiens, UniProt P08913); assay: Primary binding assay at non-sigma receptors: Alpha2A; details: 10 μM (final) assay concentration
T2 construct: expressed in transfected cells
T2 sequence (P08913 1-465): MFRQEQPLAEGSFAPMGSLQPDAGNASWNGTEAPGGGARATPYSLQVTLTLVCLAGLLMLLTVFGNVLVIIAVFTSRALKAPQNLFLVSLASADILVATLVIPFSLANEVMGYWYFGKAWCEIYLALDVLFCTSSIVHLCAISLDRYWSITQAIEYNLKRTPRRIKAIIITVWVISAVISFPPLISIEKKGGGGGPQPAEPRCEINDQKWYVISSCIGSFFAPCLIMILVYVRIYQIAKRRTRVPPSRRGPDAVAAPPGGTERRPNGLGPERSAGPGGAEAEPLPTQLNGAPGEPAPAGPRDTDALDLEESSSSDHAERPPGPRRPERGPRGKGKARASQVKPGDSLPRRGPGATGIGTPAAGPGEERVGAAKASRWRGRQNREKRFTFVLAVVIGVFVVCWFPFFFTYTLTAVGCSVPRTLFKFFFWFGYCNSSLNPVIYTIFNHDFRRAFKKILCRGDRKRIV
Method: (§1) Initial primary binding screening assays were performed using a 50 μM (initial)−10 μM (final) assay concentration of reference and test compounds.

[3] = target: T2, Alpha2A; assay: Secondary binding assay, Ki determination: Alpha2A
[4] = system: MA-10 cells; assay: Cell viability assay (MTT) in MA-10 cells; type: cell-based, mouse; details: 24 h, varying concentrations
Method: Mouse Leydig cell line (MA-10) was grown in Waymouth media containing 15% horse serum, 5% fetal bovine serum, and 1× gentamycin, which was replaced with […] G418 (geneticin) for VDAC1 knockdown (ΔVDAC1) MA10 cells. Cells were maintained at 37° C. in a humidified incubator under 5% CO2. To isolate mitochondria, cells were removed from tissue culture plates by gentle scrapping in phosphate-buffered saline at room temperature, incubated in hypotonic buffer (10 mM HEPES, pH 7.4) for 30 to 40 min, and mitochondria were isolated following readily available procedures. The mitochondrial preparation was verified by Western blotting with the cytochrome P450 SCC enzyme (Corgen, Tapai, Taiwan) and calnexin antibodies (Santa Cruz Biotechnology, Inc., Santa Cruz, Calif.).
Stock solutions (1 mM) of the ligands were made in 1× phosphate buffered saline, filter-sterilized, and then further diluted up to 1 μM with serum-free medium. Cell viability was determined by the 3-[4,5-dimethylthiazol-2yl]-2,5-diphenyltetrazolium bromide assay using a commercially available kit following the manufacturer's instructions (Promega, Madison, Wis.). MA-10 cells were plated in a 96-well plate at an initial density of 4×10^3 cells per well for 24 h at 37° C. in 5% CO2 atm. After 24 h of serum starvation, the culture media were changed to serum-free media containing 1, 5, 10, 50, and 100 nM concentration for each KSCM ligand. Next, the cells were incubated for 2 to 3 h with 0.5 mg/ml of 3-[4,5-dimethylthiazol-2yl]-2,5-diphenyltetrazolium bromide reagent and lysed with dimethyl sulfoxide, and the absorbance was measured at 550 nm (FlexStation 3; Molecular Devices, Sunnyvale, Calif.).

[5] = target: T3, σ1 receptor (Rattus norvegicus, UniProt Q9R0C9); assay: Secondary binding assay, Ki determination at σ1 receptor ([3H]pentazocine); details: rat brain homogenate, read-out: σ-1 (Ki)
T3 construct: crude membrane fractions prepared from rat brain homogenate for σ1 receptors; from tissue; host or cells: rat brain homogenate, crude membrane fraction

[6] = target: T4, D3 (Homo sapiens, UniProt P35462); assay: Primary binding assay at non-sigma receptors: D3; details: 10 μM (final) assay concentration
T4 construct: expressed in transfected cells
Method: as §1

[7] = system: non-sigma receptors; assay: Binding screen against panel of non-sigma receptors (overall statement)
Method: as §1

[8] = target: T5, M4 (Homo sapiens, UniProt P08173); assay: Secondary binding assay, Ki determination: M4
T5 construct: expressed in transfected cells
T5 sequence (P08173 1-479): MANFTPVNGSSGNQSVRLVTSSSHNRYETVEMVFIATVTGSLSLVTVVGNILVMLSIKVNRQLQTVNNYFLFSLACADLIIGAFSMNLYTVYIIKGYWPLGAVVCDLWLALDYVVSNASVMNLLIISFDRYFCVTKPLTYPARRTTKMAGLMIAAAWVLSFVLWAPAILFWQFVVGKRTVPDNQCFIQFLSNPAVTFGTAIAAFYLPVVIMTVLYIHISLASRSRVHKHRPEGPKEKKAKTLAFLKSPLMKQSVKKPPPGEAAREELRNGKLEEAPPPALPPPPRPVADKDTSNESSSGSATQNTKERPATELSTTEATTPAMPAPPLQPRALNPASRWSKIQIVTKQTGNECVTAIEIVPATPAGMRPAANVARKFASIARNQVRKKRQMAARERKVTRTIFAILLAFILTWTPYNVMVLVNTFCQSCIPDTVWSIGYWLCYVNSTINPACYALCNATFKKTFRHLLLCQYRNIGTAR

[9] = target: T6, 5HT3 (Homo sapiens, UniProt P46098); assay: Secondary binding assay, Ki determination: 5HT3
T6 construct: expressed in transfected cells
T6 sequence (P46098 24-478): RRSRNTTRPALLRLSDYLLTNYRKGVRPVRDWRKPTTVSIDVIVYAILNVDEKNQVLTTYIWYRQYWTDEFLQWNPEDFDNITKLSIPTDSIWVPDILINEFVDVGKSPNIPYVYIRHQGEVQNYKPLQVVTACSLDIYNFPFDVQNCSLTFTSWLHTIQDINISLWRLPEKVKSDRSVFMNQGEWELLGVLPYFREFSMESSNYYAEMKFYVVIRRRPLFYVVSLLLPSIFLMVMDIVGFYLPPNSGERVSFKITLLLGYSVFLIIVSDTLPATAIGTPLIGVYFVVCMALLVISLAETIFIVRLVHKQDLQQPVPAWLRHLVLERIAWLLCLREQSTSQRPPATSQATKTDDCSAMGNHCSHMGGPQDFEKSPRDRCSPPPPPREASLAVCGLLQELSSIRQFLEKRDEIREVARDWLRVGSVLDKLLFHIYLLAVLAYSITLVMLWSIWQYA

T3 sequence (Q9R0C9 whole entry): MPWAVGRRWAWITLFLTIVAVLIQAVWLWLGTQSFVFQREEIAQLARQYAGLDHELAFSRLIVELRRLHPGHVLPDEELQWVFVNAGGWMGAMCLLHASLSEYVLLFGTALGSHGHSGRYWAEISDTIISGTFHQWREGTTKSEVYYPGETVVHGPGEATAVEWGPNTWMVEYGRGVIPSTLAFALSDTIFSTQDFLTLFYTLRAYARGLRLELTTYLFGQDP
T1 sequence (P41595 whole entry, species assumed): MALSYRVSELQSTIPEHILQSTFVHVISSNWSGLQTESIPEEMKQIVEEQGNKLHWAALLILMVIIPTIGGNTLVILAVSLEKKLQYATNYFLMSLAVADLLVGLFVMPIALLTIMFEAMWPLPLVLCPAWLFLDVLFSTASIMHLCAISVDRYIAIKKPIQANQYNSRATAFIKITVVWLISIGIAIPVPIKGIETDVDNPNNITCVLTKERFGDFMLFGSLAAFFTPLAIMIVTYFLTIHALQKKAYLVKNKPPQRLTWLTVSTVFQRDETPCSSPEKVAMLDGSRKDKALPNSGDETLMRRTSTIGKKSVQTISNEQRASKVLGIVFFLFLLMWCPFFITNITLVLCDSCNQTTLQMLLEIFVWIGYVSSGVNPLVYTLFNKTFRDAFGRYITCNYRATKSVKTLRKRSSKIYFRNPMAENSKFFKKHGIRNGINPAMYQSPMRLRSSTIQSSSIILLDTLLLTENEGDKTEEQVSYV
T4 sequence (P35462 whole entry): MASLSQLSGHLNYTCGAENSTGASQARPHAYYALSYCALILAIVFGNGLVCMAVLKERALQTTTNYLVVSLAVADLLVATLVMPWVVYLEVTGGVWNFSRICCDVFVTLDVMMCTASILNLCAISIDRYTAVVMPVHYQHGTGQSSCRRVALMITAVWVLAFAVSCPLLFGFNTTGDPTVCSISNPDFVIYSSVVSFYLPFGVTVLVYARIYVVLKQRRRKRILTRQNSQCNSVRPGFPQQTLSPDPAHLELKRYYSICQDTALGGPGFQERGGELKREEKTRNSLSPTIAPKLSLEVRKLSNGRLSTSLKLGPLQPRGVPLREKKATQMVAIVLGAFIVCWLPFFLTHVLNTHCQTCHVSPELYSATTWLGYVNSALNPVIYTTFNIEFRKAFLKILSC

SMILES	Ki [1]	inhibition at 10 µM [2]	Ki [3]	toxicity / effect on cell viability compared among the ligands (in words) [4]	Ki [5]	inhibition at 10 µM [6]	affinity at non-sigma receptors selected for secondary binding assay (in words) [7]	selectivity for sigma receptors (σ1 and σ2) over non-sigma receptors (in words) [7]	Ki [8]	Ki [9]
Cc1c(C(=O)N(CCCN2CCCCC2)c2ccccc2)oc2ccccc12 [KSCM-5, 3-Methyl-N-phenyl-N-(3-(piperidin-1-yl)propyl)benzofuran-2-carboxamide]	936 nM	77.7%	1230 nM	most potent decrease in cell viability; also recorded: greatest toxicity	–	–	–	–	–	–
COc1ccc2c(C)c(C(=O)N(CCCN3CCCCC3)c3ccccc3)oc2c1 [KSCM-11, 6-Methoxy-3-methyl-N-phenyl-N-(3-(piperidin-1-yl)propyl)benzofuran-2-carboxamide]	204 nM	81.1%	653 nM	greater cytotoxic effect than KSCM-1	34 nM	40.6%	no significant affinity	have the desired selectivity for sigma receptors	–	–
COc1cc2oc(C(=O)N(CCCN3CCCCC3)c3ccccc3)c(C)c2cc1OC [KSCM-1, 5,6-Dimethoxy-3-methyl-N-phenyl-N-(3-(piperidin-1-yl)propyl)benzofuran-2-carboxamide]	–	–	–	–	27 nM and 27.5 nM	38.8%	–	–	2870 nM	7610 nM
